What all share (format): physicochemical
A short description of series [1]: Hygroscopicity test through dynamic vapor sorption (DVS). Conditions: for Hygroscopicity (25° C./80% RH): DVS; for Morphology Change: after DVS hygroscopicity test. From the text:
Experimental Example 3. Hygroscopicity Test Through Dynamic Vapor Sorption (DVS)
From a pharmaceutical point of view, it is desired to maintain the initial moisture and morphology without absorbing moisture even in a moisture environment.

A short description of series [2]: Stability test of crystalline forms A and B (25° C./60% RH and 40° C./75% RH, 1 week). Conditions: for Increase of impurities under given conditions: 25° C./60% RH and 40° C./75% RH; for Increase of impurities under given conditions / Change of crystalline form: in words. From the text:
Experimental Example 4. Stability Test
(§1) From a pharmaceutical point of view, the stability of an active ingredient is very important. It is not preferable pharmaceutically that impurities are excessively produced or the crystalline form is changed under a storage condition.

The nature of series [3]: Stability test under storage condition at room temperature (crystalline form A, up to 6 months). Conditions: for Crystalline form / Purity (%): room temperature storage.
Source text: Experimental Example 5. Stability Test Under Storage Condition
as §1

[4] abbreviates: storage conditions at room temperature, in words.

For the compound `CNC(=S)NCc1ccc(OCc2ccccc2)cc1` [Crystalline form A, 1-(4-benzyloxy-benzyl)-3-methyl-thiourea], in series [1] (80% moisture condition, in words), the “Moisture content compared between forms” value is on record as “contains less moisture under 80% moisture condition than crystalline form B”. Moreover, the “Hygroscopicity (25° C./80% RH)” value in series [1] worked out at 0.07%. Besides, the “Morphology Change” value in series [1] is on record as “No”. For the same compound, in series [2], the “Increase of impurities under given conditions” value is reported as “impurities were not increased”. The Final crystalline form result in series [2] (25° C./60% RH, 1 week) is on record as “form A”; in series [2] (40° C./75% RH, 1 week) it was “form A”. The “HPLC Purity (area %)” value is 99.71 area % in series [2] (25° C./60% RH, 1 week); 99.66 area % in series [2] (40° C./75% RH, 1 week); 99.55 area % in series [2] (Initial). For the same compound, the Crystalline form entry in series [3] (1 month), in series [3] (3 months), in series [3] (6 months) and in series [3] (Initial) was “form A” each time. Also, the “Purity (%)” value in series [3] (1 month), in series [3] (3 months), in series [3] (6 months) and in series [3] (Initial) was 100.0% throughout. In addition, in series [3] (setting [4]), the “Change of crystalline form” value was “the crystalline form was not changed”. Besides, in series [3] (setting [4]), the Increase of impurities result is “impurities were not increased”.
As to `CNC(=S)NCc1ccc(OCc2ccccc2)cc1` [Crystalline form B, 1-(4-benzyloxy-benzyl)-3-methyl-thiourea], the “Hygroscopicity (25° C./80% RH)” value in series [1] came out at 0.20%. The “Morphology Change” value in series [1] was “No”. Besides, the “Increase of impurities under given conditions” value in series [2] is “impurities were not increased”. In addition, the Final crystalline form result is “forms A + B” in series [2] (25° C./60% RH, 1 week) and “form A” in series [2] (40° C./75% RH, 1 week). In addition, the “HPLC Purity (area %)” value in series [2] (25° C./60% RH, 1 week) is 99.70 area %; in series [2] (40° C./75% RH, 1 week) it was 99.72 area %; in series [2] (Initial) it was 99.49 area %. The “Change of crystalline form” value in series [2] (acceleration condition) is listed as “all changed into crystalline form A”; in series [2] (storage condition at room temperature), “being changed into crystalline form A”.
